Legend:
[1] = molecular target: T1, recombinant RNR (RRM1 + RRM2) (Homo sapiens, UniProt P31350); test: recombinant RNR activity assay, CDP to dCDP conversion; assay type: biochemical
T1 construct: with Ribonucleoside-diphosphate reductase large subunit
T1 sequence (P31350 1-389): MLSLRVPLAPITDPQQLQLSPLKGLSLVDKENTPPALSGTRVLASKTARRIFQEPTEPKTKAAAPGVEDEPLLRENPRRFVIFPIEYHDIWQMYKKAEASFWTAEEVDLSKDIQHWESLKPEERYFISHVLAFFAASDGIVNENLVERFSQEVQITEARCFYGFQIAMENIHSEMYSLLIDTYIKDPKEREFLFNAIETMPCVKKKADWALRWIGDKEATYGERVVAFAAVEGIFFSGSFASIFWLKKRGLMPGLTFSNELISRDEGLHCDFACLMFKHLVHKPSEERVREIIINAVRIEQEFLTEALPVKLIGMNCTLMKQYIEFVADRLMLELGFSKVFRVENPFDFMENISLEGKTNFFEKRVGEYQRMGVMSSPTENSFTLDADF
T1 sequence (P23921 1-792 partner): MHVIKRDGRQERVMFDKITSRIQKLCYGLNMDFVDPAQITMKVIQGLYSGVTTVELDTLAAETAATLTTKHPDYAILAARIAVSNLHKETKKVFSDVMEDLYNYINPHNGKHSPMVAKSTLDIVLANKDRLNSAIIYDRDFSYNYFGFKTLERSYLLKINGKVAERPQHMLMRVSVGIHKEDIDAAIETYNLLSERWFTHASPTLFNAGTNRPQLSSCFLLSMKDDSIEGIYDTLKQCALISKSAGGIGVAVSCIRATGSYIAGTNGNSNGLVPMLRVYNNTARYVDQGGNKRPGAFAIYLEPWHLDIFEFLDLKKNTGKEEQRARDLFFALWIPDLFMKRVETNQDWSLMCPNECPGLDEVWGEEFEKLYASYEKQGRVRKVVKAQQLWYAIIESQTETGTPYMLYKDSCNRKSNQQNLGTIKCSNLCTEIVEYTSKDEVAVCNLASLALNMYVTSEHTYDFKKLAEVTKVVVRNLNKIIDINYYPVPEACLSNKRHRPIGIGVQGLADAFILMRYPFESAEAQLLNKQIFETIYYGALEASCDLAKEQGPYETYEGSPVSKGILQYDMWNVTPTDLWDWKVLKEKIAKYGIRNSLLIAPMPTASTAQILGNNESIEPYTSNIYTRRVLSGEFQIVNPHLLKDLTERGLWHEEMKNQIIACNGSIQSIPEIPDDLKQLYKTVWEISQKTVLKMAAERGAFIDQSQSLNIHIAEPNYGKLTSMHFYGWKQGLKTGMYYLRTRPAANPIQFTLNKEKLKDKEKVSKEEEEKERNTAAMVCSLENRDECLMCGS

RRM2 = molecular target: T2, RRM2 (Homo sapiens, UniProt P31350); test: microscale thermophoresis; assay type: binding
T2 construct: recombinant purified RRM2, lysine-labelled for MST
T2 sequence (P31350 1-389): T1 sequence (P31350 1-389)

NC(=O)NO [HU, hydroxyurea, reference compound]
IC50 [1]: 29.8 µM

Oc1ccc(OCc2ccccc2)cc1 [MB, monobenzone]
Kd (RRM2): 22.5 ± 14 µM
IC50 [1]: 0.25 µM

From publication PMC9564123, “Identification of Monobenzone as a Novel Potential Anti-Acute Myeloid Leukaemia Agent That Inhibits RNR and Suppresses Tumour Growth in Mouse Xenograft Model” (Cancers, 2022)
